Measurements from PubChem BioAssay (NCI).
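Growth conditions: 96-well plates. Treatment: test compound, 48 hours, 5 concentrations. Analysis: linear interpolation between bracketing concentrations; unreached endpoints set to highest concentration. GI50 is the concentration that inhibits growth by half. TGI denotes the concentration required for complete inhibition of growth.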

Columns and labels:
Test in all cases: DTP human tumour cell line panel, 48 h
NCI-H23 lung = system: NCI-H23 lung
M14 melanoma = system: M14 melanoma
K-562 leukemia = system: K-562 leukemia
NCI-H522 lung = system: NCI-H522 lung
HL-60(TB) leukemia = system: HL-60(TB) leukemia
KM12 colon = system: KM12 colon
NCI-H460 lung = system: NCI-H460 lung
OVCAR-4 ovarian = system: OVCAR-4 ovarian
SK-MEL-2 melanoma = system: SK-MEL-2 melanoma
OVCAR-3 ovarian = system: OVCAR-3 ovarian

SMILES | GI50 (NCI-H23 lung) [µM] | TGI (NCI-H23 lung) [µM] | GI50 (M14 melanoma) [µM] | TGI (M14 melanoma) [µM] | GI50 (K-562 leukemia) [µM] | TGI (K-562 leukemia) [µM] | GI50 (NCI-H522 lung) [µM] | TGI (NCI-H522 lung) [µM] | GI50 (HL-60(TB) leukemia) [µM] | TGI (HL-60(TB) leukemia) [µM] | GI50 (KM12 colon) [µM] | TGI (KM12 colon) [µM] | GI50 (NCI-H460 lung) [µM] | TGI (NCI-H460 lung) [µM] | GI50 (OVCAR-4 ovarian) [µM] | TGI (OVCAR-4 ovarian) [µM] | GI50 (SK-MEL-2 melanoma) [µM] | TGI (SK-MEL-2 melanoma) [µM] | GI50 (OVCAR-3 ovarian) [µM] | TGI (OVCAR-3 ovarian) [µM]
C[CH2][Sn]([CH2]C)([O]C(=O)c1ccc(OC)c(OC)c1OC)[O]C(=O)c1ccc(OC)c(OC)c1OC | 33 | > 67.1 | 61.9 | > 100 | 21.7 | > 74.6 | 2.42 | 8.54 | > 63.5 | > 100 | > 100 | > 100 | > 100 | > 100 | > 82.6 | > 100 | 28.7 | 81.7 | > 100 | > 100
Cc1ccccc1C1CC(c2ccccc2)=NO1 (centres undefined) | – | > 100 | – | > 100 | – | > 100 | – | > 100 | – | > 100 | – | > 100 | – | > 100 | – | > 100 | – | > 100 | – | > 100
CCCCCC[C@H](C)NC(=O)c1ccc(Nc2nc3ccccc3c3occc23)cc1 | 2.41 | 6.08 | 2.25 | 5.37 | 8.72 | > 100 | 2.5 | 5.74 | 4.47 | 48.9 | 4.27 | 20.5 | 3.81 | > 100 | – | – | 2.64 | 6.83 | 3.11 | 19.7
Cc1cc(Cl)ccc1NC(=O)C(=O)C(C(=O)c1ccccc1)C1OC(=O)c2ccccc21 (centres undefined) | – | > 100 | – | > 100 | – | > 100 | – | > 100 | – | > 100 | – | > 100 | – | > 100 | – | > 100 | – | > 100 | – | –
C=C1C(=O)O[C@H]2[C@H]1CC/C(COC(=O)NCCCCCCCCNC(=O)OC/C1=C/CC[C@@]3(C)O[C@H]3[C@H]3OC(=O)C(=C)[C@@H]3CC1)=C\CC[C@@]1(C)O[C@@H]21 | 0.485 | 1.74 | 0.272 | 0.8 | 0.349 | 1.37 | 0.186 | 0.407 | 0.268 | 0.869 | 1.29 | 3.11 | 1.75 | 3.98 | 0.521 | 1.86 | 0.601 | 2.8 | 0.33 | 1.06
CC(C)C1N2CCCCC2[C@@H]2c3[nH]c4ccccc4c3CCN12 (some centres undefined) | – | > 100 | – | > 100 | – | > 100 | – | – | – | > 100 | – | – | – | > 100 | – | > 100 | – | > 100 | – | > 100
COC(=O)C(/C(=N\NC(N)=S)C(=O)Nc1ccccc1[N+](=O)[O-])c1cnc2ccccc2n1 (centres undefined) | – | > 100 | – | > 100 | – | > 100 | – | > 100 | – | > 100 | – | > 100 | – | > 100 | – | > 100 | – | > 100 | – | –
Cc1ccc2nc(NC(=O)/C(=N\NC(=S)NN)C3C(=O)NC(=S)NC3=O)sc2c1 | – | > 100 | – | > 100 | – | > 100 | – | > 100 | – | > 100 | – | > 100 | – | > 100 | – | > 100 | – | > 100 | – | –
c1ccc(N/N=C2\NN=C(c3ccccc3)CS2)cc1 | – | 52.3 | – | 24.8 | – | 25.8 | – | 10.8 | – | > 100 | – | 53.2 | – | 51.4 | – | – | – | 44 | – | 50.9
Cc1ccc(NC(=O)OCC(COc2ccc(Cl)cc2Cl)OC(=O)Nc2ccc(C)cc2)cc1 (centres undefined) | – | > 100 | – | > 100 | – | – | – | – | – | – | – | > 100 | – | > 100 | – | > 100 | – | > 100 | – | > 100
Cn1c2ccccc2c2c(=O)n(CCCC(=O)OC(=NC3CCCCC3)NC3CCCCC3)c3c(-c4ccccc4)nnn3c21 | > 100 | > 100 | > 100 | > 100 | > 100 | > 100 | 69.5 | > 100 | – | – | > 100 | > 100 | > 100 | > 100 | 38 | > 100 | > 100 | > 100 | > 100 | > 100
C1C[OH+]CC[OH+]CCNCC[OH+]CC[OH+]CCN1.Cl.[Cl-].[Pt+4] | 5.27 | 25 | > 100 | > 100 | > 100 | > 100 | 2.27 | 6.47 | > 100 | > 100 | – | – | > 100 | > 100 | – | – | – | – | – | –
CCCCCCCC(=O)[O][Hg][CH2]C1COC([CH2][Hg][O]C(=O)CCCCCCC)CO1 (centres undefined) | 14.2 | 28.6 | 16.4 | 30 | 2.09 | > 100 | 4.8 | > 100 | 2.77 | > 100 | 16.3 | 30.6 | 18.2 | 37.4 | – | – | – | – | 4.22 | 14.8
COc1cccc(Nc2nccc(-c3cnn4ncccc34)n2)c1 | 0.0532 | 0.201 | 0.0777 | 0.34 | 0.115 | > 25 | 0.122 | 0.767 | 0.0553 | 0.163 | 0.0629 | 0.367 | 0.0754 | > 25 | 0.0903 | 17.8 | 0.0572 | 0.138 | – | –
COC[C@H](C)N=CN1CCc2ccccc2C1(Cc1ccccc1)Cc1ccccc1 | – | 39.8 | – | 22.7 | – | 29.3 | – | 26.7 | – | – | – | 27.3 | – | 25.9 | – | 35.6 | – | 23.6 | – | 43.8
CCN(CC)CCNc1ccc2nc(C)n3c4ccc(O)cc4c(=O)c1c23 | – | – | – | 16.2 | – | 13.4 | – | 2.24 | – | 2.78 | – | 17.4 | – | 1.83 | – | 3.87 | – | 20.3 | – | 17.1
COc1ccc2nc(NC(=O)C(=O)NNC(=O)c3ccncc3)sc2c1 | – | > 100 | – | > 100 | – | > 100 | – | > 100 | – | > 100 | – | – | – | > 100 | – | > 100 | – | – | – | > 100
